Experimental data reported in US20070123569A1, “THERAPEUTIC METHODS USING PROSTAGLANDIN EP4 AGONIST COMPONENTS” (ALLERGAN, INC., priority 2005, published 2007).

Legend:
AGS cells = test: Indomethacin-induced apoptosis of AGS gastric epithelial cells (flow cytometry); type: cell-based; settings: FIG. 2
Protocol: Studies similar to those described for Examples 38 to 40 were conducted on cultured human gastric epithelial cells. This cell line, designated as AGS, was purchased from ATCC. […] Prostaglandin EP4 agonist 1 was given at four different concentrations to separate samples of the cells in a serum-free medium. One hour later, indomethacin at 400 μM was added into the culture medium in three of the samples to induce apoptosis of the AGS cells. Twenty four (24) hours after the addition of indomethacin, the cells were collected and processed for flow cytometry analysis. Ten thousand (10,000) cells were sorted for each sample, and the percentage of apoptotic cells was calculated.

IEC-18 cells = test: Indomethacin-induced apoptosis of IEC-18 cells (flow cytometry); type: cell-based, rat; settings: 24 h, FIG. 1
Protocol: Rat ileum epithelial cells identified as IEC-18, were purchased from ATCC. The cells were seeded and cultured overnight. In three (3) series of tests, each of PGE2, prostaglandin EP4 agonist 1 and prostaglandin EP4 agonist prodrug 3 was given at one or two concentrations to separate samples of the cells in a serum-free medium. One hour later, the non-steroidal anti-inflammatory drug (NSAID) indomethacin at 100 μM was added into the culture medium to induce apoptosis of the IEC-18 cells. Twenty four (24) hours after the addition of indomethacin, the cells were collected and processed for flow cytometry analysis. Ten thousand (10,000) cells were sorted for each sample, and the percentage of apoptotic cells was calculated.

gastric mucous cells = test: BrdU immunostaining of stomach tissue sections from indomethacin-dosed mice; type: in vivo, mouse; settings: given prior to indomethacin, FIG. 7
Protocol: Each of prostagiandin EP4 agonist 1 and PGE 1 analog Misoprostol was given to C57BL/6 mice at two or three concentrations. Twenty four (24) hours and 30 minutes later, the NSAID indomethacin was given at 20 mg/kg to induce stomach lesions and stomach inflammation. Twenty four (24) hours after indomethacin dosing, the mice were sacrificed and the stomach lesions were scored histopathologically and by gross lesion count.
BrdU immunostaining was performed on stomach tissue sections from mice treated with the prostaglandin EP4 agonist 1 and the PGE1 analog Misoprostol. Incorporation of BrdU label, as detected with positive BrdU immunostaining, is indicative of cell growth/regeneration. The abilities of prostaglandin EP4 agonist 1 and the PGE1 analog Misoprostol to regenerate gastric epithelial cells when given prior to indomethacin dosing were compared. The mean percentages of BrdU label incorporated cells in stomach tissue sections and the standard errors of the means from both treatments are shown in FIG. 7.

For `COc1ccc2c(c1)c(CC(=O)O)c(C)n2C(=O)c1ccc(Cl)cc1` [Indomethacin, indomethacin, reference compound], the “apoptosis induced by indomethacin itself” value (AGS cells; indomethacin 400 μM, 24 h) was “about 30%”.

For `CCCCC[C@H](O)/C=C/[C@H]1[C@H](O)CC(=O)[C@@H]1C/C=C\CCCC(=O)O` [PGE2, prostaglandin E2, reference compound], the “reduction of indomethacin-induced apoptosis” value (IEC-18 cells; serum-free medium, indomethacin 100 μM added 1 h after compound) was “about 65%”.

In the case of `CC1(C)C(=O)[C@H](C/C=C\CCCC(=O)O)[C@@H](/C=C/C(O)CCc2sc3ccccc3c2Cl)[C@@H]1O` (stereo partly drawn) [prostaglandin EP4 agonist 1], the “apoptosis or cell death with the agonist alone (no indomethacin)” value (AGS cells; serum-free medium) is reported as “very little or substantially no apoptosis or cell death”, the “restoration of regenerative ability of gastric mucous cells, BrdU label (in words)” value (gastric mucous cells) is reported as “significant restoration” and the “restoration of regenerative ability of gastric mucous cells injured by indomethacin (BrdU label)” value (gastric mucous cells; maximum dose employed) is reported as “about 25%”. The “effect on indomethacin-induced apoptosis (in words)” value (IEC-18 cells; indomethacin 100 μM) was “reduced indomethacin-induced apoptosis significantly”.
